Experimental data published in US20100279941A1, “CD36 MODULATION AND USES THEREOF” (priority 2009, published 2010).

System: CD36^+/+ and CD36^−/− mice
Experiment: Myeloperoxidase assay of myocardial leukocyte accumulation
Type: in vivo
Conditions: 48 hours reperfusion; CD36-dependent (CD36^+/+ mice); 10-week pretreatment; p<0.05
Protocol: Experimental model of IHD: Transient left coronary artery ligation in vivo. Mice were subjected to a transient LCAL surgery as described before, with minor modifications [Tarnayski et al., 2004]. Mice were injected i.p. with buprenorphine (0.05 mg/kg) and placed in an induction chamber with inhalation anesthesia comprised of 3% isoflurane mixed with 100% oxygen. Mice were intubated with a blunt ended 20-gauge catheter into the trachea via the mouth and mechanically ventilated at a tidal volume of 7 ml/kg at 130 respirations/min with a MiniVent™ mouse ventilator (model 845, Harvard Apparatus, Saint-Laurent, QC, Canada). Anesthesia was maintained with 1.5-2% isoflurane and the animals were kept warm using electrical heating pads during the surgical procedure. The chest was opened by a horizontal incision through the skin and muscle layers at the third intercostal space exposing the left side of the heart. […] Visual blanching distal to the coronary occlusion confirmed myocardial ischaemia. Lidocaine (6 mg/kg) was administered i.p. just following occlusion and prior to reperfusion. After 30 minutes, the PE10 tubing was removed allowing reperfusion. The lungs were reinflated and the chest wound closed layer by layer before extubation. […]
Myeloperoxidase assay. […] The numbers of PMN per left ventricle were calculated from the standard curves.

HAIC-2MeDTrp-DLys-Trp-DPhe-Lys-NH2 [EP 80317]
reduction in myocardial leukocyte accumulation: 53%
